Values of other authors, collected in patent publication US20230381356A1 (priority 2021, published 2023).

How the values were obtained:
SARS-CoV-2 = conditions: GITC alone, even in high concentrations
Pixuna virus = conditions: GITC alone at or near saturation (~3.5M)
Ebola Virus = conditions: saturated GITC solution ~3.5M alone
[1] = test system: Xenotropic murine leukemia virus
[2] = test system: Bovine Viral Diarrheal Virus
Virus = conditions: in <1 minute, final concentration of 1% (v/v)

| Compound | inactivation of SARS-CoV-2 (SARS-CoV-2) | inactivation of Pixuna virus (Pixuna virus) | inactivation of Ebola Virus (Ebola Virus) | inactivation of Pseudorabies Virus (Pseudorabies Virus) | inactivation of Xenotropic murine leukemia virus [1] | inactivation of Bovine Viral Diarrheal Virus [2] | inactivation of HIV (HIV) | log reduction (Virus) |
| --- | --- | --- | --- | --- | --- | --- | --- | --- |
| N#CS.N=C(N)N [GITC, Guanidine isothiocyanate] | 50-75% | did not effectively inactivate | does not inactivate |  |  |  |  |  |
| Triton X-100 |  |  |  | inactivate | inactivate | inactivate | inactivate | 4 log |
